Literature values in patent US11646117B2, “Matrix factorization of antibiogram metadata” (priority 2019, dated 2023).
Like-named read-outs stand apart in the source and are kept apart here.

Tested on: Klebsiella pneumoniae (biosample SAMN07265011, strain DHQP1605752_NV)
Details: for Measurement (MIC): CLSI; for Resistance phenotype: testing standard CLSI

For `NCC[C@H](O)C(=O)N[C@@H]1C[C@H](N)[C@@H](O[C@H]2O[C@H](CN)[C@@H](O)[C@H](O)[C@H]2O)[C@H](O)[C@H]1O[C@H]1O[C@H](CO)[C@@H](O)[C@H](N)[C@H]1O` [amikacin], the “Measurement (MIC)” value (laboratory typing method MIC) is listed as > 64 mg/L and the Resistance phenotype is listed as “resistant”.
For `CC1(C)S[C@@H]2[C@H](NC(=O)[C@H](N)c3ccccc3)C(=O)N2[C@H]1C(=O)O` [ampicillin], the “Measurement (MIC)” value (laboratory typing method MIC) is listed as > 32 mg/L and the Resistance phenotype is listed as “resistant”.
For `C[C@H]1[C@H](NC(=O)/C(=N\OC(C)(C)C(=O)O)c2csc(N)n2)C(=O)N1S(=O)(=O)O` [aztreonam], the “Measurement (MIC)” value (laboratory typing method MIC) is listed as > 64 mg/L and the Resistance phenotype is listed as “resistant”.
For `Cc1nnc(SCC2=C(C(=O)O)N3C(=O)[C@@H](NC(=O)Cn4cnnn4)[C@H]3SC2)s1` [cefazolin], the “Measurement (MIC)” value (laboratory typing method MIC) is listed as > 8 mg/L and the Resistance phenotype is listed as “resistant”.
For `CO/N=C(\C(=O)N[C@@H]1C(=O)N2C(C(=O)[O-])=C(C[N+]3(C)CCCC3)CS[C@H]12)c1csc(N)n1` [cefepime], the “Measurement (MIC)” value (laboratory typing method MIC) is listed as > 32 mg/L and the Resistance phenotype is listed as “resistant”.
In the case of `CO/N=C(\C(=O)N[C@@H]1C(=O)N2C(C(=O)O)=C(COC(C)=O)CS[C@H]12)c1csc(N)n1` [cefotaxime], the “Measurement (MIC)” value (laboratory typing method MIC) is given as > 64 mg/L and the Resistance phenotype is given as “resistant”.
For `CO[C@@]1(NC(=O)Cc2cccs2)C(=O)N2C(C(=O)O)=C(COC(N)=O)CS[C@@H]21` [cefoxitin], the “Measurement (MIC)” value (laboratory typing method MIC) is listed as > 16 mg/L and the Resistance phenotype is listed as “resistant”.
For `CC(C)(O/N=C(\C(=O)N[C@@H]1C(=O)N2C(C(=O)[O-])=C(C[n+]3ccccc3)CS[C@H]12)c1csc(N)n1)C(=O)O` [ceftazidime], the “Measurement (MIC)” value (laboratory typing method MIC) is listed as > 128 mg/L and the Resistance phenotype is listed as “resistant”.
In the case of `CO/N=C(\C(=O)N[C@@H]1C(=O)N2C(C(=O)O)=C(CSc3nc(=O)c(=O)[nH]n3C)CS[C@H]12)c1csc(N)n1` [ceftriaxone], the “Measurement (MIC)” value (laboratory typing method MIC) is given as > 32 mg/L and the Resistance phenotype is given as “resistant”.
In the case of `O=C(N[C@H](CO)[C@H](O)c1ccc([N+](=O)[O-])cc1)C(Cl)Cl` [chloramphenicol], the “Measurement (MIC)” value (laboratory typing method MIC) is listed as > 16 mg/L and the Resistance phenotype is listed as “resistant”.
For `C[C@@H](O)[C@H]1C(=O)N2C(C(=O)O)=C(S[C@@H]3CN[C@H](CNS(N)(=O)=O)C3)[C@H](C)[C@H]12` [doripenem], the “Measurement (MIC)” value (laboratory typing method MIC) is given as > 8 mg/L and the Resistance phenotype is given as “resistant”.
In the case of `C[C@@H](O)[C@H]1C(=O)N2C(C(=O)O)=C(S[C@@H]3CN[C@H](C(=O)Nc4cccc(C(=O)O)c4)C3)[C@H](C)[C@H]12` [ertapenem], the “Measurement (MIC)” value (laboratory typing method MIC) is given as > 8 mg/L and the Resistance phenotype is given as “resistant”.
For `C[C@@H]1O[C@@H]1P(=O)(O)O` [fosfomycin], the “Measurement (MIC)” value (MIC, platform Agar dilution) is given as 32 mg/L and the “Measurement (MIC)” value (MIC, platform Etest) is given as 16 mg/L.
In the case of `C[C@@H](O)[C@H]1C(=O)N2C(C(=O)O)=C(S[C@@H]3CN[C@H](C(=O)N(C)C)C3)[C@H](C)[C@H]12` [meropenem], the “Measurement (MIC)” value (laboratory typing method MIC) is given as > 8 mg/L and the Resistance phenotype is given as “resistant”.
For `CN(C)c1cc(NC(=O)CNC(C)(C)C)c(O)c2c1C[C@H]1C[C@H]3[C@H](N(C)C)C(O)=C(C(N)=O)C(=O)[C@@]3(O)C(O)=C1C2=O` [tigecycline], the “Measurement (MIC)” value (laboratory typing method MIC) is listed as 4 mg/L and the Resistance phenotype is listed as “intermediate”.
For `NC[C@H]1O[C@H](O[C@H]2[C@H](O)[C@@H](O[C@H]3O[C@H](CO)[C@@H](O)[C@H](N)[C@H]3O)[C@H](N)C[C@@H]2N)[C@H](N)C[C@@H]1O` [tobramycin], the “Measurement (MIC)” value (laboratory typing method MIC) is listed as > 16 mg/L and the Resistance phenotype is listed as “resistant”.
For colistin, the “Measurement (MIC)” value (laboratory typing method MIC) is given as > 8 mg/L.
In the case of gentamicin, the “Measurement (MIC)” value (laboratory typing method MIC) is listed as > 16 mg/L and the Resistance phenotype is listed as “resistant”.
For polymyxin B, the “Measurement (MIC)” value (laboratory typing method MIC) is given as > 8 mg/L.
